Experimental findings from ChEMBL document CHEMBL4819135, “Design, synthesis and anti-HIV evaluation of novel 5-substituted diarylpyrimidine derivatives as potent HIV-1 NNRTIs” (Bioorg Med Chem, 2021) are described below.

Series [1] relates to Human immunodeficiency virus 1. In words: Antiviral activity against HIV-1 IIIB. The class given is functional, organism-based. The following applies: Human immunodeficiency virus 1, IIIB.
Series [2] concerns Human immunodeficiency virus 1. Description: Antiviral activity against HIV-1 IIIB harboring RT K103N mutant infected in human MT4 cells assessed as protection against virus-induced cytotoxicity incubated for 5 days by MTT assay. The format is functional, organism-based. Conditions: Human immunodeficiency virus 1, IIIB, MT4, 120 h.
The subject of series [3] is Human immunodeficiency virus 1. In words: Antiviral activity against HIV-1 IIIB harboring RT F227L/V106A mutant infected in human MT4 cells assessed as protection against virus-induced cytotoxicity incubated for 5 days by MTT assay. The class given is functional, organism-based. The following applies: Human immunodeficiency virus 1, IIIB, MT4, 120 h.
For series [4], the system named is Human immunodeficiency virus 1. Description: Antiviral activity against HIV-1 RES056 infected in human MT4 cells assessed as protection against virus-induced cytotoxicity incubated for 5 days by MTT assay. The format is functional, organism-based. The following applies: Human immunodeficiency virus 1, RES056, MT4, 120 h.
Series [5] relates to Human immunodeficiency virus 1. In words: Potency index, ratio of Etravirine EC50 to test compound EC50 for antiviral activity against HIV-1 IIIB infected in human MT4 cells by MTT assay. The format is functional. In general terms: Tetrazolium assays rely on reduction of a dye to a coloured formazan, in cell work by metabolically active cells.
In series [6] the test system is Human immunodeficiency virus 1. In words: Antiviral activity against HIV-1 IIIB harboring RT L100I mutant infected in human MT4 cells assessed as protection against virus-induced cytotoxicity incubated for 5 days by MTT assay. The format is functional, organism-based. The following applies: Human immunodeficiency virus 1, IIIB, MT4, 120 h.
Series [7] can be described thus: Cytotoxicity against human MT4 cells assessed as reduction in cell viability after 5 days by MTT assay. The class given is cell-based. Conditions: time 5 day.
In series [8] the test system is Human immunodeficiency virus 1. Description: Antiviral activity against HIV-1 IIIB harboring RT Y181C mutant infected in human MT4 cells assessed as protection against virus-induced cytotoxicity incubated for 5 days by MTT assay. The format is functional, organism-based. The following applies: Human immunodeficiency virus 1, IIIB, MT4, 120 h.
Series [9] relates to Human immunodeficiency virus 1. Description: Antiviral activity against HIV-1 IIIB infected in human MT4 cells assessed as protection against virus-induced cytotoxicity after 5 days by MTT assay. The class given is functional, organism-based. Conditions: Human immunodeficiency virus 1, IIIB, MT4, 120 h.
For series [10], the system named is Human immunodeficiency virus 1. Description: Antiviral activity against HIV-1 IIIB harboring RT Y188L mutant infected in human MT4 cells assessed as protection against virus-induced cytotoxicity incubated for 5 days by MTT assay. The class given is functional, organism-based. The following applies: Human immunodeficiency virus 1, IIIB, MT4, 120 h.
Series [11] has as its target Human immunodeficiency virus type 1 reverse transcriptase (Human immunodeficiency virus 1, UniProt Q72547). In words: Inhibition of wild type HIV-1 reverse transcriptase assessed as reduction in biotin-dUTP incorporation in presence of template-primer incubated for 60 mins followed by transferring to streptavidin-coated plate and further incubation for 60 mins by ELISA. In general terms: An ELISA detects its analyte on a solid surface through an enzyme-linked reagent.

A short description of series [12]: Antiviral activity against HIV-2 ROD infected in human MT4 cells assessed as protection against virus-induced cytotoxicity incubated for 5 days by MTT assay. The class given is functional, cell-based. Conditions: HIV-2, ISOLATE ROD, MT4, 120 h.
Series [13] relates to Human immunodeficiency virus 1. In words: Antiviral activity against HIV-1 IIIB harboring RT E138K mutant infected in human MT4 cells assessed as protection against virus-induced cytotoxicity incubated for 5 days by MTT assay. The format is functional, organism-based. Conditions: Human immunodeficiency virus 1, IIIB, MT4, 120 h.
The subject of series [14] is Human immunodeficiency virus 1. Description: Potency index, ratio of Etravirine EC50 to test compound EC50 for antiviral activity against HIV-1 IIIB harboring RT E138K mutant infected in human MT4 cells by MTT assay. The class given is functional.

The structures appear in SMILES notation.

One may read the EC50 as the concentration giving half of the maximal effect. Consider `Cc1cc(C#N)cc(C)c1Oc1nc(Nc2ccc(C#N)cc2)nc2ccsc12`, for which the EC50 in [1] came out at 0.0016 µM.

In general, CC50 refers to the concentration at which the toxic effect on the cells reaches its halfway point. By IC50 is commonly meant the concentration at which inhibition is half-maximal. As for `Cc1cc(C#N)cc(C)c1Oc1nc(Nc2ccc(C#N)cc2)ncc1-c1ccncc1`, the EC50 in [2] was 0.0042 µM; in [3], 0.0413 µM; in series [4], 0.718 µM; in [6], 0.0283 µM; in series [8], 0.0241 µM; in series [9] it was 0.0025 µM. For the same compound, the EC50 is 0.0309 µM in [10], over 27.9 µM in [12] and 0.0059 µM in [13]. Also, the results for the “Ratio EC50” value in series [5] and in series [14] were 1.2 and 1.4, respectively. The CC50 at 120 h in series [7] turned out to be 27.9 µM. Further, the 50% inhibitory concentration (IC50) in series [11] came out at 0.57 µM.
